Several values for one entry are separate records, joined by “and”; a condition that tells them apart may be missing. Equal entries are not always repeated. Activity calls are given as the source filed them.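 The calls were made as follows: active = compounds giving half or more protection of infected cells from virus-caused growth loss, again on retest; inactive = the rest.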 Where a SMILES comes first, the peptide text is derived from it. The star is where a group is joined. Boc = CC(C)(C)OC(=O)*
Test system: CEM cells HIV-1 protection, formazan growth assay
Test: NCI AIDS Antiviral Assay
Conditions: for IC50: measured here: growth of uninfected CEM cells
Outline: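 Steps: treat uninfected and HIV-1-infected human CEM cells at five drug levels; quantify growth by soluble formazan; retest any compound reaching 50% protection; classify actives from the retest.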

Compound	EC50 [µM]	IC50	outcome
CCC/C=C(/Br)[Si](C)(C)C	> 427	372 µM	
O=C(O)CCCCCCCCCCCI	27.5	110 µM	
Nc1nc2c(C(=O)O)c3ccc([N+](=O)[O-])cc3c(=O)n2c2ccccc12	> 200	15.8 µM	
COc1ccc2nc3cc(Cl)ccc3c(Sc3ccccc3[N+](=O)[O-])c2c1	> 9.55	> 9.55 µM	
CN1CCC/C1=C1/C(=O)N(c2ccccc2)N=C1c1ccc[nH]1	191	> 200 µM	
COC1(c2ccc(Cl)cc2)SC=C(C)n2c1noc2=O (stereo not drawn)	> 200	> 200 µM	
NNC(=S)N/N=C(\c1nc2ccc(Cl)cc2[nH]c1=O)C(O)c1ccc(Cl)cc1Cl (stereo not drawn)	> 525	97.7 µM	
COC(=O)C(Cc1c[nH]c2ccccc12)NC(=O)C(Cc1c[nH]c2ccccc12)NC(=O)C(Cc1c[nH]c2ccccc12)NC(=O)C(Cc1c[nH]c2ccccc12)NC(=O)C(Cc1c[nH]c2ccccc12)NC(=O)C(Cc1c[nH]c2ccccc12)NC(=O)C(Cc1c[nH]c2ccccc12)NC(=O)C(Cc1c[nH]c2ccccc12)NC(=O)OC(C)(C)C (stereo not drawn) (Boc-WWWWWWWW-OMe; configuration not given here)	> 100	40.7 µM	
O=C(CC/C(C/C(=N/O)c1ccc(F)cc1)=N/O)N(Cc1ccccc1)Cc1ccccc1	> 112	> 112 µM	
COP(=O)(Cc1ccccc1)Cc1ccccc1	> 200	> 200 µM	
CCOC(=O)CN=C1Nc2ccccc2C(=O)N2CSCC12 (stereo not drawn)	> 200	158 µM	
O=c1ssc(Cl)c1-c1ccccc1	> 200	10.2 µM	
CN(C)c1ccc(/C=C(\NC(=O)c2ccccc2)C(=O)NC(CC(=O)O)C(=O)O)cc1 (stereo not drawn)			inactive
O=C1CC2C3C1N(c1ccc(Cl)cc1)C1(Nc4ccc(Cl)cc4)C(=O)CC(C31)N2c1ccc(Cl)cc1 (stereo not drawn)	> 200	33.9 µM	
O=C(NN1C(=O)CSC1c1ccco1)c1ccncc1 (stereo not drawn)	> 200	> 200 µM	
CC[N+]1(C)CCC(O)(/C=C/c2ccc(Cl)c(Cl)c2)C(C(=O)/C=C/c2ccc(Cl)c(Cl)c2)C1 (stereo not drawn)	> 200	3.8 µM	
Nc1c(S(=O)(=O)O)cc2cc(S(=O)(=O)O)ccc2c1N=Nc1ccc(S(=O)(=O)c2ccc(N=Nc3c(N)c(S(=O)(=O)O)cc4cc(S(=O)(=O)O)ccc34)cc2)cc1	> 64.6	> 64.6 µM	
O=S(=O)(SS(=O)(=O)c1ccc(Cl)cc1)c1ccc(Cl)cc1	> 93.3	> 93.3 µM	
CN(C)c1ccc(/C=C(\C#N)c2ccccc2)cc1	> 5.89		
S=C1NC2(CCCCC2)N2C(=S)NC3(CCCCC3)N12			inactive

Compound	EC50 [µM]	IC50	outcome
O=C(CCCC[n+]1ccccc1)Sc1ccccc1C(=O)Nc1ccc(S(=O)(=O)c2ccc(NS(=O)(=O)Cc3ccccc3[N+](=O)[O-])cc2)cc1	9.55	> 200 µM	
O=C1c2ccccc2C(=O)c2c(NCCOCCO)ccc(NCCOCCO)c21	> 200	107 µM	
O=c1cc2ccccc2nn1Cc1ccccc1Cl	> 251	> 251 µM	
O=[N+]([O-])c1ccc(Oc2ccc(S(=O)(=O)c3ccc(Oc4ccc([N+](=O)[O-])cc4)c([N+](=O)[O-])c3)cc2[N+](=O)[O-])cc1	> 200	> 200 µM	
O=C(CCN1CCCCC1CCO)Nc1ccc2c(c1)C(=O)c1ccc(NC(=O)CCN3CCCCC3CCO)cc1C2=O (stereo not drawn)	> 200	2.63 µM	
O=C(O)c1ccc(CSc2ccc([N+](=O)[O-])cc2)c([N+](=O)[O-])c1	> 204	> 100 µM	
CC(=O)OCC1OC(N2C(=O)[C@@H](Oc3ccccc3)[C@H]2/C=C/c2ccccc2)C(OC(C)=O)C(OC(C)=O)C1OC(C)=O (stereo partly drawn)	> 16.6	> 16.6 µM	
CC(=S)NC1C(Oc2ccc3c(C)cc(=O)oc3c2)OC(CO)C(O)C1O (stereo not drawn)	> 200	> 200 µM	
Cn1ccc(-c2cn(C)c3ccnn3c2=O)n1	> 200	> 200 µM	
O=C1NC(=S)NNC12c1ccccc1-c1ccccc12	> 200	33.9 µM	
COc1ccc(/C=C2\CCc3ccccc3C2=O)cc1	> 19.5	12.6 µM	
CCCCCCCCCCCCCCCCCCCCCCNc1ccn(C2CC(OP(=O)(O)OCC3OC(n4cc(C)c(=O)[nH]c4=O)CC3N=[N+]=[N-])C(COP(=O)(O)OCC3CCC(n4ccc(N)nc4=O)O3)O2)c(=O)n1 (stereo not drawn)	0.234	38 µM	
[N-]=[N+]=NC1CC(n2cc(CO)c(=O)[nH]c2=O)OC1CO (stereo not drawn)	> 437	240 µM	
CC(=O)N/N=C/c1ccc(N(C)C)cc1	> 200	> 200 µM	
NC(=O)CCCCC1CCSS1 (stereo not drawn)	> 457	> 457 µM	
O=c1[nH][nH]c2c1SCc1ccccc1-2	> 955	468 µM	
COC(=O)C12CC3CC(C1)CC(C(=O)OC)(C3)C2	> 513	363 µM	
CC1(C)C2C=C(CCN3CCOCC3)CC1C2 (stereo not drawn)	> 200	> 200 µM	
COC(=O)c1cc(C(=CCCCC(=O)O)c2cc(Cl)c(OC)c(C(=O)OC)c2)cc(Cl)c1OC	> 200	> 200 µM	
O=[N+]([O-])c1ccc(C[N+]23CCN(CC2)CC3)cc1			inactive

Compound	EC50 [µM]	IC50	outcome
Cc1cc(C)c(NS(=O)c2ccc(Cl)cc2)c(C)c1 (stereo not drawn)	> 33.9	> 33.9 µM	
Cn1c(=O)c2nc(-c3ccccc3)oc2n(C)c1=O			inactive
CC1=NOC(=O)/C1=C/c1ccc([N+](=O)[O-])cc1	> 1070	933 µM	
C/C(=C\C(=O)O)C(=O)N(C)c1ccccc1I	> 200	> 200 µM	
N#Cc1ccc(OCCSCCCCCCCCCCSCCOc2ccc(C#N)cc2)cc1	> 2.88	> 2.88 µM	
CCOC(=O)c1c(-c2ccc(OC)cc2)c(C#N)c(=S)n(C2OC(COC(C)=O)C(OC(C)=O)C(OC(C)=O)C2OC(C)=O)c1C (stereo not drawn)	> 200	42.7 µM and 33.9 µM	
O=C(c1ccccc1)N1CCCCC(Cl)C1=O (stereo not drawn)	> 1000	> 1000 µM	
Cc1c(CN2CCOCC2)c(CN2CCOCC2)c(C)n1-c1ccc(Cl)cn1	> 200	> 200 µM	
CC1(O)CSc2c(C=O)c3ccccc3n21 (stereo not drawn)	> 1070	67.6 µM	
N#CC(C(=O)/C(=N/NC(=O)c1ccccc1O)C(C#N)c1ccc(Cl)cc1)c1ccc(Cl)cc1 (stereo not drawn)	> 40.7	22.4 µM	
COc1ccc(NC(=O)/C(=C/n2c(=S)[nH]c3cc(C)ccc32)C(C)=O)cc1	> 200	> 200 µM	
Cc1ccc(C(=O)/C=C/c2ccccc2)s1	> 200	10.7 µM	
CC1(C)OC2CN(C(=O)OCc3ccccc3)C(CO)C2O1 (stereo not drawn)			inactive
CC1=NN(C(=O)CC(=O)Nc2ccccc2)C(=O)C1N=Nc1ccc(S(N)(=O)=O)cc1 (stereo not drawn)	> 151	75.9 µM	
COc1cc(C)cc2c1C(=O)C(NC(C)=O)=CC2=O	> 200	11.7 µM	
Cn1cc2c(n1)c(N/N=C/c1ccccc1)nn1nnnc21	> 89.1	> 89.1 µM	
C[C@]12CCC3(CC1C(=O)CC[C@@H]2OCc1ccccc1)OCCO3 (stereo partly drawn)			active
CC(C)[C@@H]1C=C(c2ccccc2)c2ccccc2C1C(C#N)(C#N)C(C)C (stereo partly drawn)	> 20.4	> 20.4 µM	
COc1cc(C2c3cc4c(cc3CCN2C(=O)c2ccccc2)OCO4)cc(OC)c1OC (stereo not drawn)	> 200	13.5 µM	
COc1ccc(OC)c(/C=C/NC=O)c1	> 200	> 200 µM	

Reference: PubChem BioAssay AID179 (DTP/NCI, 2004)
